Where two headings read alike, the source gives them in different places.
System: 280 human cancer cell lines
Assay: OncoPanel cell proliferation assay (10-day)
Type: cell-based
Conditions: for EC50: read-out: Cell Count EC50; for IC50: read-out: Cell Count IC50
[1] = Homo sapiens, 22Rv1, 22Rv1, Prostate
[2] = Homo sapiens, 786-0, 786-O, Kidney
[3] = Homo sapiens, A7, Skin (Melanoma)
[4] = Homo sapiens, A101D, Skin (Melanoma)
[5] = Homo sapiens, A 172, A172, CNS - Glioma
[6] = Homo sapiens, A253, A-253, Head and Neck
[7] = Homo sapiens, A388, Head and Neck
[8] = Homo sapiens, A498, A498, Kidney
[9] = Homo sapiens, A549, A549, Lung - NSCLC
[10] = Homo sapiens, A673, A-673, Soft Tissue - Sarcoma
[11] = Homo sapiens, A704, A-704, Kidney
[12] = Homo sapiens, A-375, A375, Skin (Melanoma)
[13] = Homo sapiens, A-427, A427, Lung - NSCLC
[14] = Homo sapiens, A-431, A431, Head and Neck
[15] = Homo sapiens, AN3-CA, AN3 CA, Female GU - Uterus
[16] = Homo sapiens, ARH-77, ARH-77, Myeloma
[17] = Homo sapiens, ASPC1, AsPC-1, Pancreas
[18] = Homo sapiens, AU565, AU565, Breast
[19] = Homo sapiens, BCP-1, BCP-1, Lymphoma
[20] = Homo sapiens, BE(2)-C, BE(2)C, CNS - Neuroblastoma
[21] = Homo sapiens, BFTC-905, BFTC-905, Bladder
[22] = Homo sapiens, BHT-101, BHT-101, Endocrine - Thyroid
[23] = Homo sapiens, BM-1604, BM-1604, Prostate
[24] = Homo sapiens, BPH-1, BPH1, Prostate
[25] = Homo sapiens, BT-20, BT20, Breast

## CC(C)=CCC[C@H](C)[C@@H]1CC[C@@H](C)c2c1cc(C)c(O)c2O [Compound 4, 7,8-dihydroxyserrulat-14-ene]
GI50 range 0.03-0.099 μM, of 280 cell types
  Number of cell types, GI Activity Potent: 0
GI50 range 0.1-0.99 μM, of 280 cell types
  Number of cell types, GI Activity moderately potent: 1
GI50 range 1-2.99 μM, of 280 cell types
  Number of cell types, GI Activity Strong: 11
GI50 range 3-9.99 μM, of 280 cell types
  Number of cell types, GI Activity moderately strong: 125
GI50 range 10-30.00 μM, of 280 cell types
  Number of cell types, GI Activity weak: 130
GI50 range >30 μM, of 280 cell types
  Number of cell types, GI Activity very weak: 13
Homo sapiens, 12 cell lines with moderately potent to strong activity, read-out: GI50
  GI50: 0.68 to 2.92 µM
[1]
  EC50: 9.08 µM
  IC50: 9.08 µM
Homo sapiens, 22Rv1, 22Rv1, Prostate, read-out: Cell Count GI50
  GI50: 9 µM
Homo sapiens, 647-V, Bladder
  EC50: 5.99 µM
  IC50: 6 µM
Homo sapiens, 647-V, Bladder, read-out: Cell Count GI50
  GI50: 5.99 µM
Homo sapiens, 769-P, Kidney
  EC50: 3.72 µM
  IC50: 3.72 µM
Homo sapiens, 769-P, Kidney, read-out: Cell Count GI50
  GI50: 3.71 µM
[2]
  EC50: 14 µM
  IC50: 14 µM
Homo sapiens, 786-0, 786-O, Kidney, read-out: Cell Count GI50
  GI50: 13.9 µM
Homo sapiens, 5637, Bladder
  EC50: 15.2 µM
  IC50: 15.2 µM
Homo sapiens, 5637, Bladder, read-out: Cell Count GI50
  GI50: 15.1 µM
[3]
  EC50: 10.5 µM
  IC50: 10.5 µM
Homo sapiens, A7, Skin (Melanoma), read-out: Cell Count GI50
  GI50: 10.5 µM
[4]
  EC50: > 30 µM
  IC50: > 30 µM
Homo sapiens, A101D, Skin (Melanoma), read-out: Cell Count GI50
  GI50: > 30 µM
[5]
  EC50: 8.08 µM
  IC50: 8.08 µM
Homo sapiens, A 172, A172, CNS - Glioma, read-out: Cell Count GI50
  GI50: 8.03 µM
[6]
  EC50: 18.2 µM
  IC50: 18.2 µM
Homo sapiens, A253, A-253, Head and Neck, read-out: Cell Count GI50
  GI50: 18.1 µM
[7]
  EC50: 7.66 µM
  IC50: 7.66 µM
Homo sapiens, A388, Head and Neck, read-out: Cell Count GI50
  GI50: 7.59 µM
[8]
  EC50: 12.3 µM
  IC50: 12.3 µM
Homo sapiens, A498, A498, Kidney, read-out: Cell Count GI50
  GI50: 12.2 µM
[9]
  EC50: 10.9 µM
  IC50: 10.9 µM
Homo sapiens, A549, A549, Lung - NSCLC, read-out: Cell Count GI50
  GI50: 10.8 µM
[10]
  EC50: 2.88 µM
  IC50: 2.88 µM
Homo sapiens, A673, A-673, Soft Tissue - Sarcoma, read-out: Cell Count GI50
  GI50: 2.87 µM
[11]
  EC50: 5.7 µM
  IC50: 5.7 µM
Homo sapiens, A704, A-704, Kidney, read-out: Cell Count GI50
  GI50: 5.41 µM
[12]
  EC50: 5.74 µM
  IC50: 5.74 µM
Homo sapiens, A-375, A375, Skin (Melanoma), read-out: Cell Count GI50
  GI50: 5.74 µM
[13]
  EC50: 10 µM
  IC50: 10 µM
Homo sapiens, A-427, A427, Lung - NSCLC, read-out: Cell Count GI50
  GI50: 9.98 µM
[14]
  EC50: 24.8 µM
  IC50: 24.8 µM
Homo sapiens, A-431, A431, Head and Neck, read-out: Cell Count GI50
  GI50: 24.8 µM
Homo sapiens, ACHN, Kidney
  EC50: 9.5 µM
  IC50: 9.5 µM
Homo sapiens, ACHN, Kidney, read-out: Cell Count GI50
  GI50: 9.47 µM
Homo sapiens, AGS, Stomach
  EC50: 5.25 µM
  IC50: 5.25 µM
Homo sapiens, AGS, Stomach, read-out: Cell Count GI50
  GI50: 5.24 µM
[15]
  EC50: 9.62 µM
  IC50: 9.62 µM
Homo sapiens, AN3-CA, AN3 CA, Female GU - Uterus, read-out: Cell Count GI50
  GI50: 9.43 µM
[16]
  EC50: 13.5 µM
  IC50: 13.5 µM
Homo sapiens, ARH-77, ARH-77, Myeloma, read-out: Cell Count GI50
  GI50: 13.4 µM
[17]
  EC50: 14.7 µM
  IC50: 14.7 µM
Homo sapiens, ASPC1, AsPC-1, Pancreas, read-out: Cell Count GI50
  GI50: 14.5 µM
[18]
  EC50: 10.1 µM
  IC50: 10.1 µM
Homo sapiens, AU565, AU565, Breast, read-out: Cell Count GI50
  GI50: 10 µM
Homo sapiens, BC-1, Lymphoma
  EC50: 4.16 µM
  IC50: 4.16 µM
Homo sapiens, BC-1, Lymphoma, read-out: Cell Count GI50
  GI50: 4.16 µM
[19]
  EC50: 8.82 µM
  IC50: 8.82 µM
Homo sapiens, BCP-1, BCP-1, Lymphoma, read-out: Cell Count GI50
  GI50: 8.75 µM
[20]
  EC50: 13.1 µM
  IC50: 13.1 µM
Homo sapiens, BE(2)-C, BE(2)C, CNS - Neuroblastoma, read-out: Cell Count GI50
  GI50: 13 µM
[21]
  EC50: 9.7 µM
  IC50: 9.7 µM
Homo sapiens, BFTC-905, BFTC-905, Bladder, read-out: Cell Count GI50
  GI50: 9.68 µM
[22]
  EC50: 6.8 µM
  IC50: 6.8 µM
Homo sapiens, BHT-101, BHT-101, Endocrine - Thyroid, read-out: Cell Count GI50
  GI50: 6.77 µM
[23]
  EC50: > 30 µM
  IC50: > 30 µM
Homo sapiens, BM-1604, BM-1604, Prostate, read-out: Cell Count GI50
  GI50: > 30 µM
[24]
  EC50: 17.3 µM
  IC50: 17.3 µM
Homo sapiens, BPH-1, BPH1, Prostate, read-out: Cell Count GI50
  GI50: 17.3 µM
[25]
  EC50: 14.1 µM
  IC50: 14.3 µM
Homo sapiens, BT-20, BT20, Breast, read-out: Cell Count GI50
  GI50: 13.9 µM
Homo sapiens, BT-474, BT474, Breast
  EC50: 25.5 µM
